Source: patent US9650339B2, “Inhibitors of histone demethylases” (Gilead Sciences, Inc., priority 2013, dated 2017)

Columns and labels:
KDM6A (UTX) = KDM6A (UTX) (Homo sapiens, UniProt O15550); assay: Histone lysine demethylase AlphaLISA assay, KDM6A; type: biochemical; details: read-out: KDM6A HDME Inhibition IC50
Summary of the method: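 AlphaLISA demethylation readout: enzyme preincubated 10 min, then 10 min with compounds in 3% DMSO buffer, before biotinylated methyl-lysine histone peptide substrate with 25 μM L-Asc and 10 μM α-KG, room temperature. Acceptor beads then streptavidin donor beads added, dark incubation, plates read.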

KDM6B (JMJD3) = target: T1, KDM6B (JMJD3) (Homo sapiens, UniProt O15054); assay: Histone lysine demethylase AlphaLISA assay, KDM6B; type: biochemical; details: read-out: KDM6B HDME Inhibition IC50
T1 construct: 1043-end; purchased BPS; host or cells: Bac (baculovirus system)
Description: Assays are performed analogously to the protocol described by PerkinElmer (Roy et al. PerkinElmer Technical Note: AlphaLISA #12, April 2011)
Enzymes are dissolved in enzyme buffer and incubated for 10 min before being added to 3% DMSO solutions of compounds in enzyme buffer. Incubated for another 10 minutes, before substrate solution is added and the reaction mixture is incubated at room temperature. 10 μL acceptor beads, suspended in Epigenetic Buffer (Perkin Elmer AL008) from stock, are added and the suspension is incubated in the dark at room temperature, before a suspension of streptavidin donor beads (Perkin Elmer 6760002) in Epigenetic Buffer is added. After incubation at room temperature in the dark the plates are read. […]
BK27M3: Biotin-ATKAAR(Kme3)SAPATGGVKKPHRY-NH2? (Caslo, Denmark) […]
Substrate Solution: Substrate, 25 μM L-Asc, and 10 μM α-KG in Buffer A.

KDM4C = target: T2, KDM4C (Homo sapiens, UniProt Q9H3R0); assay: Histone lysine demethylase immunofluorescence assay, U2OS cells transfected with KDM4C; type: cell-based; details: U2OS cells transfected with pCMVHA KDM4C; mark detected H3K9me3; 20 hours
T2 construct: Full length; host or cells: U2OS
T2 sequence (Q9H3R0 1-1056): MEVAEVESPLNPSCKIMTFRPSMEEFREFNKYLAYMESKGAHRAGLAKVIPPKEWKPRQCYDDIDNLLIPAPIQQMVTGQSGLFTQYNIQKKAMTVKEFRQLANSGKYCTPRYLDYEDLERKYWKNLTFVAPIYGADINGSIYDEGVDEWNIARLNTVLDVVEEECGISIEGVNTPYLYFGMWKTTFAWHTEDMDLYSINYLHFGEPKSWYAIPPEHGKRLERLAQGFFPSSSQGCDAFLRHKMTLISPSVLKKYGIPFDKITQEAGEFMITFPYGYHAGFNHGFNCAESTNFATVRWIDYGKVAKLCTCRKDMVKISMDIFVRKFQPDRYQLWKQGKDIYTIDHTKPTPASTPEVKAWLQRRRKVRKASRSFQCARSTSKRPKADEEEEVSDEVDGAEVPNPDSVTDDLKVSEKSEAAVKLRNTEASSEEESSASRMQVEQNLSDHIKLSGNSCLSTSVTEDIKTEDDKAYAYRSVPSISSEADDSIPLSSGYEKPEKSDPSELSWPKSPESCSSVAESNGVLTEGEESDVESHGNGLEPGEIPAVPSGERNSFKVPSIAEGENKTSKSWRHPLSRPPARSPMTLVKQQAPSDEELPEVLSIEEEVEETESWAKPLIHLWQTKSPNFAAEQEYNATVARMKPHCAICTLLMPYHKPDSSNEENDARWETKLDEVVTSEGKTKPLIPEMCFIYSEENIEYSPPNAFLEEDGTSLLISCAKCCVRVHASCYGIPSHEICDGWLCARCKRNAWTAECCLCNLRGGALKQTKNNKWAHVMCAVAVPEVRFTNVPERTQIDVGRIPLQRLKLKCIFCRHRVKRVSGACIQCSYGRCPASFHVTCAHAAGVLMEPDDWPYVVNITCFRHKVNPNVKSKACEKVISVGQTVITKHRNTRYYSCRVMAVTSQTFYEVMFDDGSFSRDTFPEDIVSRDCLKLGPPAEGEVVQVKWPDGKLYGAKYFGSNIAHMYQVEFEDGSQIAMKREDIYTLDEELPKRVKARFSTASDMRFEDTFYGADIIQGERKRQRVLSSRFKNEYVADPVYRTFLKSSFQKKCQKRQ
Summary of the method: (§1)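 U2OS cells were transiently transfected with HA-tagged demethylase and reseeded after 6 h into compound-containing DMEM/10% FBS for 20 h. Cells were fixed in formaldehyde and immunostained for HA and the relevant histone methyl mark, then imaged. IC50 is based on mean mark staining in HA+ transfected cells.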

KDM5B = target: T3, KDM5B (Homo sapiens, UniProt Q9UGL1); assay: Histone lysine demethylase immunofluorescence assay, U2OS cells transfected with KDM5B; type: cell-based; details: U2OS cells transfected with pCMVHA KDM5B; mark detected H3K4me2; 20 hours
T3 construct: (a.a. 1-752); host or cells: U2OS
T3 sequence (Q9UGL1 1-752): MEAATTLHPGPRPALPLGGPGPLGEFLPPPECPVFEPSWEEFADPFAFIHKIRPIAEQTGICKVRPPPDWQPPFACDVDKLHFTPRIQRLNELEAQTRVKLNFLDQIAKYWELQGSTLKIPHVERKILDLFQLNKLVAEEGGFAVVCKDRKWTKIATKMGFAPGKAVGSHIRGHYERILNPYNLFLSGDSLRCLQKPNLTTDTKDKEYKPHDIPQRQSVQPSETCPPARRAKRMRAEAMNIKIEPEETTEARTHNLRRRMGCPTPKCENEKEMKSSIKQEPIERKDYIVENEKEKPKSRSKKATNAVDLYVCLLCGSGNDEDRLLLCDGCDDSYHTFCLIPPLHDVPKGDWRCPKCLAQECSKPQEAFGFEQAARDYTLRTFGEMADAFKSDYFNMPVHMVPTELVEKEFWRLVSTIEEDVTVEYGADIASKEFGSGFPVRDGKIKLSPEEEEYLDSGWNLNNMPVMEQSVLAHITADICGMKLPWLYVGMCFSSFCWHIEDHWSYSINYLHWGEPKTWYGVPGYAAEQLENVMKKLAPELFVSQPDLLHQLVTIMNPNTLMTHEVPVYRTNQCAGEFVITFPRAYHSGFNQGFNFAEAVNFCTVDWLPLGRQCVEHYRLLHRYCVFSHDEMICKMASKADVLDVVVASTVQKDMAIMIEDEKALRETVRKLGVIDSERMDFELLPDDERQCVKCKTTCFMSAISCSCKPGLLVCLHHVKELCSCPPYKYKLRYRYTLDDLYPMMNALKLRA
Summary of the method: as §1

T1 sequence (O15054 1043-1682 isoform O15054-1 limits assumed): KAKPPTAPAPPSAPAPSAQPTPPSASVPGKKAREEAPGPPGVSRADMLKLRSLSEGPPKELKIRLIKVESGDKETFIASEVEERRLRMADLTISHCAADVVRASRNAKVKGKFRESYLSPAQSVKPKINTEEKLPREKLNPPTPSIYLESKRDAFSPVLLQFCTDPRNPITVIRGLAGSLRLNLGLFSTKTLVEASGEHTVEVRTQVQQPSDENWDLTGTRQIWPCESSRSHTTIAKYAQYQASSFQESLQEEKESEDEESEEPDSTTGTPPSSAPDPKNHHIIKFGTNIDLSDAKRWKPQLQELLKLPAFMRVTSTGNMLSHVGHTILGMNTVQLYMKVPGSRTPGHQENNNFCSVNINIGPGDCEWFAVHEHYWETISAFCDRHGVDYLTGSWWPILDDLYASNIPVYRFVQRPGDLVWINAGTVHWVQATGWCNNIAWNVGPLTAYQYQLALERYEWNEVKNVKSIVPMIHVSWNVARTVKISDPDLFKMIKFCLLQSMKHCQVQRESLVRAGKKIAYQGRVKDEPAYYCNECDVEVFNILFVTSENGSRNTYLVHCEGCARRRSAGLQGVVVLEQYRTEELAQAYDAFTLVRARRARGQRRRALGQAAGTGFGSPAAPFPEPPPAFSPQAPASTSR
Chain of KDM6A (UTX) (O15550 919-1401): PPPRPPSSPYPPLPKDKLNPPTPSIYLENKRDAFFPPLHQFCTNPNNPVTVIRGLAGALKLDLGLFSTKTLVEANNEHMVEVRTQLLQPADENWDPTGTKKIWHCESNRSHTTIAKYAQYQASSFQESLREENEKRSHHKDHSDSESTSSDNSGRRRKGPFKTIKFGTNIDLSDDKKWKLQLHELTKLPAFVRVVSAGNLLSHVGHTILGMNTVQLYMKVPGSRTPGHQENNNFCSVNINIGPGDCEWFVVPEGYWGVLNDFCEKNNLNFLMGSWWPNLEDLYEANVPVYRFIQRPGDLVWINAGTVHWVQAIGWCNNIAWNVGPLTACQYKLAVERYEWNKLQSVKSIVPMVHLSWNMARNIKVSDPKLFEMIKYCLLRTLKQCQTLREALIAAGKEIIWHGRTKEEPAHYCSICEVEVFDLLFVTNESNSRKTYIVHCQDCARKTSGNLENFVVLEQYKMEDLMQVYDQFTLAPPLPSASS

| Structure (SMILES) | IC50 (KDM6A (UTX)) [nM] | IC50 (KDM6B (JMJD3)) [nM] | IC50 (KDM4C) [nM] | IC50 (KDM5B) [nM] |
| --- | --- | --- | --- | --- |
| CNCc1ccnc(CNCCCN(C)Cc2ccccc2)c1 [Compound 17, benzyl(methyl){3-[({4-[(methylamino)methyl]-pyridin-2-yl)methyl)-amino]propyl}-amine] | > 2500 | > 2500 | > 2500 | > 2500 |
| CN(C)CCNCc1cc(CNC(C#N)C2CC2)ccn1 (stereo not shown) [Compound 21, 2-cyclopropyl-2-({[2-({[2-(dimethylamino)ethyl]-amino}methyl)pyridin-4-yl]methyl}amino)-acetonitrile] | > 2500 | > 2500 | > 2500 | 250 to 2500 |
| CC(C#N)NCc1ccnc(CNCCCN(C)C)c1 (stereo not shown) [Compound 22, 2-({[2-({[3-(dimethylamino)propyl]-amino}methyl)pyridin-4-yl]methyl}amino)-propanenitrile] | > 2500 | > 2500 | > 2500 | < 250 |
| N#CCNCc1ccnc(CNCCCCN(Cc2ccccc2)C2CC2)c1 [Compound 23, 2-[({2-[({4-[benzyl(cyclopropyl)-amino]butyl}amino)-methyl]pyridin-4-yl}methyl)amino]-acetonitrile] | > 2500 | > 2500 | > 2500 | 250 to 2500 |
| CNC(C#N)c1ccnc(CNCCCN(C)C)c1 (stereo not shown) [Compound 24, 2-[2-({[3-(dimethylamino)propyl]-amino}methyl)pyridin-4-yl]-2-(methylamino)-acetonitrile] | > 2500 | > 2500 | > 2500 | < 250 |
| CN(C)CCCNCc1cc(/C=N/CCN(C)C)ccn1 [Compound 38, ({4-[{[2-(dimethylamino)ethyl]-imino}methyl]pyridin-2-yl}methyl)[3-(dimethylamino)-propyl]amine] | > 2500 | > 2500 | > 2500 | < 250 |
| CCSCCNCc1cc(/C=N/C2CC2)ccn1 [Compound 39, N-{[2-({[2-(ethylsulfanyl)-ethyl]amino}methyl)pyridin-4-yl]methylidene}-cyclopropanamine] | > 2500 | > 2500 | > 2500 | > 2500 |
| CN1CCCC1CCNCc1cc(/C=N/C2CC2)ccn1 (stereo not drawn) [Compound 40, N-{[2-({[2-(l-methylpyrrolidin-2-yl)ethyl]amino}methyl)-pyridin-4-yl]methylidene}-cyclopropanamine] | > 2500 | > 2500 | 250 to 2500 | < 250 |
| CN(CCCNCc1cc(/C=N/C2CC2)ccn1)Cc1ccccc1 [Compound 41, N-({2-[({3-[benzyl(methyl)amino]-propyl}amino)methyl]-pyridin-4-yl}methylidene)-cyclopropanamine] | > 2500 | > 2500 | 250 to 2500 | 250 to 2500 |
| C(=N/C1CC1)/c1ccnc(CNCCCN2CCCC2)c1 [Compound 42, N-{[2-({[3-(pyrrolidin-1-yl)propyl]amino}-methyl)pyridin-4-yl]methylidene}-cyclopropanamine] | > 2500 | > 2500 | 250 to 2500 | < 250 |
| CN(C)CC1CCC(CNCc2cc(/C=N/C3CC3)ccn2)CC1 (stereo not shown) [Compound 46, N-[(2-{[({4-[(dimethylamino)-methyl]cyclohexyl}-methyl)amino]-methyl}pyridin-4-yl)methylidene]-cyclopropanamine] | > 2500 | > 2500 | 250 to 2500 | < 250 |
| CN(C)CCCCCNCc1cc(/C=N/C2CC2)ccn1 [Compound 47, N-{[2-({[5-(dimethylamino)-pentyl]amino}-methyl)pyridin-4-yl]methylidene}-cyclopropanamine] | > 2500 | > 2500 | 250 to 2500 | < 250 |
| CCN(CC)CCCCNC(=O)CNCc1cc(/C=N/C2CC2)ccn1 [Compound 48, 2-[({4-[N-cyclopropyl-carboximidoyl]pyridin-2-yl}methyl)amino]-N-[4-(diethylamino)-butyl]acetamide] | > 2500 | > 2500 | > 2500 | > 2500 |

More lines, now with the values ahead:

| IC50 (KDM6A (UTX)) [nM] | IC50 (KDM6B (JMJD3)) [nM] | IC50 (KDM4C) [nM] | IC50 (KDM5B) [nM] | Structure (SMILES) |
| --- | --- | --- | --- | --- |
| > 2500 | > 2500 | 250 to 2500 | 250 to 2500 | CN(C)C(=O)CNCc1cc(/C=N\C2CC2)ccn1 [Compound 33] |
| > 2500 | > 2500 | > 2500 | 250 to 2500 | CN(C)C(=O)CNCc1cc(/C=N/CCCc2ccccc2)ccn1 [Compound 34, N,N-dimethyl-2-[({4-[[(3-phenylpropyl)imino]-methyl]pyridin-2-yl}methyl)amino]-acetamide] |
| > 2500 | > 2500 | 250 to 2500 | 250 to 2500 | CC1CC1/N=C/c1ccnc(CNCC(=O)N(C)C)c1 (stereo not shown) [Compound 35, N,N-dimethyl-2-[({4-[N-(2-methylcyclopropyl)-carboximidoyl]pyridin-2-yl}methyl)amino]-acetamide] |
| > 2500 | > 2500 | > 2500 | 250 to 2500 | CN(C)C(=O)CNCc1cc(/C=N/CCC2CCCCC2)ccn1 [Compound 36, 2-[({4-[[(2-cyclohexylethyl)imino]-methyl]pyridin-2-yl}methyl)amino]-N,N-dimethylacetamide] |
| > 2500 | > 2500 | 250 to 2500 | < 250 | CN(C)C/C=C/CNCc1cc(/C=N/C2CC2)ccn1 [Compound 43, N-{[2-({[(2E)-4-(dimethylamino)but-2-en-1-yl]amino}-methyl)pyridin-4-yl]methylidene}-cyclopropanamine] |
| > 2500 | > 2500 | 250 to 2500 | < 250 | CN(C)CCCCNCc1cc(/C=N\C2CC2)ccn1 [Compound 45, N-{[2-({[4-(dimethylamino)butyl]-amino}methyl)-pyridin-4-yl]methylidene}-cyclopropanamine] |
